In US12521441B2, “Modified IL-2 polypeptides and uses thereof” (Bright Peak Therapeutics AG, priority 2020, dated 2026):

How the values were obtained:
[1] = molecular target: T1, alpha/beta heterodimer IL2 receptor (Homo sapiens, UniProt P14784); assay: Surface plasmon resonance binding to IL2R alpha/beta heterodimer
T1 construct: purchased Abcam Ab221397; Ab174003
T1 sequence (P14784 27-239 limits assumed): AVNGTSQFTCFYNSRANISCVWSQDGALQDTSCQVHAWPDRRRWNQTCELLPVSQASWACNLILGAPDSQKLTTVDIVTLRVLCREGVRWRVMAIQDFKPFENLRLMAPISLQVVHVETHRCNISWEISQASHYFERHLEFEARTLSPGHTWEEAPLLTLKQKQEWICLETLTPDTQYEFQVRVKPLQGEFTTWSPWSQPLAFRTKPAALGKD
Description: (§1) The interaction of the IL-2 polypeptides with human IL-2 receptor subunits were measured with Surface Plasmon Resonance (SPR) technology at Crelux, a Wuxi AppTec company, Martinsried, GER. For these studies, anti-His antibodies were bound by amine coupling onto a CMS chip to capture 42 nM of His tagged human IL2 receptor alpha (Abcam, Ab221397) or of His tagged human IL2 receptor beta (Abcam, Ab174003). In other settings, 42 nM of alpha and beta IL2 receptors were mixed and pre-incubated for 30 min before capture of the alpha/beta heterodimer IL2 receptor.
(§2) Regeneration of the surface back to amine coupled anti His antibody was done after every concentration of analyte. To measure the protein association to the receptors, the samples were injected with a flow rate of 50 ul/min for 30 s, followed by 180s buffer only to detect the dissociation. The used running buffer was 1×PBS with 0.05% Tween20. The relative response units (RU, Y-axis) are plotted against time (s, X-axis) and analyzed in a kinetic 1:1 binding model for the monomer receptor binding and with a kinetic heterogenous ligand fit model for the alpha/beta heterodimer binding.
Additional surface plasmon resonance experiments were performed to determine the binding characteristics of the modified IL-2 polypeptides with IL2R alpha/beta heterodimers. The experiments were performed as indicated above, but the monomeric subunits were replaced with the IL2R heterodimers. […] In the table below, NT indicates the composition was not tested.
The secondary interactions between IL-2R heterodimers and the modified IL-2 polypeptides were also measured. […] In the table below, NT indicates the composition was not tested.

[2] = molecular target: T2, human IL2 receptor beta (CD122) (Homo sapiens, UniProt P14784); assay: Surface plasmon resonance binding to IL-2R beta monomer subunit; conditions: SPR
T2 construct: purchased Abcam Ab174003
T2 sequence (P14784 27-551): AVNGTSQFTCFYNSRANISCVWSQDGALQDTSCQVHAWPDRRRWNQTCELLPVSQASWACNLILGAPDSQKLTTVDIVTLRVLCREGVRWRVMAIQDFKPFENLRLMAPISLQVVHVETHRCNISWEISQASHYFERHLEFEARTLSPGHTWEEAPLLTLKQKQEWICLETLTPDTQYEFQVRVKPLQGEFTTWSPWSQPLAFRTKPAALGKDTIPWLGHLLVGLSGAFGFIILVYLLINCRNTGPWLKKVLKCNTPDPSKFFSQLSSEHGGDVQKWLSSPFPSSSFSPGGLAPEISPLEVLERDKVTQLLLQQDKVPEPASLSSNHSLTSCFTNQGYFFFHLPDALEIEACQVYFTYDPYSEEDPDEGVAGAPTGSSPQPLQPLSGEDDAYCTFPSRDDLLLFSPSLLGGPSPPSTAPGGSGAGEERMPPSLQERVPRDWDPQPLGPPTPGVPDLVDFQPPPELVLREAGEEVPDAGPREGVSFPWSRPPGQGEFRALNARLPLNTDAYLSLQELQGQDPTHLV
Description: as §1, §2
NT indicates the IL-2 polypeptide was not tested.

[3] = test system: Treg cells (CD4+, CD25Hi, FoxP3+); assay: pStat5 induction in human primary pan T-cells, T-Reg subset; format: cell-based
Description: (§3) An experiment was performed to determine the effect of various IL-2 polypeptides on human T-cell populations. Primary pan T-cells (CD4+, CD8+ and Tregs T cells) were obtained from healthy donor buffy coat by peripheral blood mononuclear cell (PBMC) purification using ficoll gradient centrifugation followed by negative selection with magnetic beads and then cryopreserved until use. […] After incubation, cells were fixed and permeabilized using the Transcription Factor Phospho Buffer kit followed by a surface and intracellular immunostaining for CD4, CD8, CD25, FoxP3, CD45RA and pStat5 to enable cell subset identification and measurement of Stat5 (signal transducer and activator of transcription 5) phosphorylation levels. The FACS (fluorescence activated cell sorting) measurement was done either with a NovoCyte or a Quanteon Flow Cytometer from Acea.
(§4) pStat5 MFI ([…] fluorescence intensity) signals for the T-cell subsets shown in Table 12 were plotted against concentrations of aldesleukin or of modified IL-2 polypeptides. Half maximal effective concentration (EC50) was calculated based on a variable slope, four parameter analysis using GraphPad PRISM software.

CD8 Teff cells (CD8+) = assay: pStat5 induction in human primary pan T-cells, CD8 Teff subset; format: cell-based
Description: as §3, §4

[4] = test system: Tregs (CD4+, FoxP3+, CD25Hi); assay: Single-dose pharmacodynamics in mice, Tregs (pSTAT5, Ki67, frequency); format: in vivo, C57Bl/6 mice; conditions: for Tregs % of pSTAT5 positive cells / Ratio Tregs/CD8+: 1 h after injection; for Ratio Tregs/CD8+: pSTAT5 positive cells
Description: (§5) Cell pellets were treated with 1×Lyse/Fix buffer (BD Bioscience, 558050) during 10 min. […] Cells were then permeabilized using cold BD Perm Buffer III and stained with antibodies against either Ki67, Siglec-F, CD4, CD8, FoxP3, CD62L, CD44 or pSTAT5. The FACS (fluorescence activated cell sorting) measurement was done with a Fortessa X-20 Flow Cytometer from BD. For each cell subset indicated below in Table 14, the percentage of pSTAT5 positive cells, and percentage of Ki67 positive cells, cell counts, and cell frequency was determined. [table]

CD8+ Teff (CD3+, CD8+) = assay: Single-dose pharmacodynamics in mice, CD8+ Teff (pSTAT5, Ki67, frequency); format: in vivo, C57Bl/6 mice; conditions: for CD8+ % of pSTAT5 positive cells: 1 h after injection
Description: as §5

[5] = mouse, in vivo, iv, 0.8 mg/kg
Description: A single-dose pharmacokinetic/pharmacodynamic experiment was performed in mice. Naïve, 6-8 weeks old, C57Bl/6 mice (Shanghai SLAC Laboratory Animal Co., LTD, Shanghai, China) received a single bolus intravenous (i.v.) injection of 52 nmoles/kg wild type or of modified IL-2 polypeptides. […] At indicated time points, blood samples were collected in the presence of EDTA either via tail vein sampling or via cardiac puncture (end-point).
Blood samples were immediately processed by centrifugation. Plasma samples were cryopreserved at −80° C. until bioanalysis.
Bioanalysis of plasma samples was performed using a qualified human IL-2 LegendPlex bead assay (Biolegend, #740717, #740368, #740758). Concentrations of wild type and of modified IL-2 polypeptides and the internal standard in samples derived from plasma were determined using human IL-2 LegendPlex bead assay. PK data were subjected to a non-compartmental pharmacokinetic analysis by using the Phoenix WinNonlin software (version 6.3, Pharsight, Mountain View, CA). The linear/log trapezoidal rule was applied in obtaining the PK parameters.
The PK parameters were determined by means of non-compartmental analysis (NCA) using R package “PK”. The area under plasma concentration-time curves (AUC0-last) were calculated using the linear trapezoidal rule on the arithmetic means at the different time points while the extrapolation necessary for the AUC0-inf and AUMC 0-Inf was achieved assuming an exponential decay on the last 3 time points.

[6] = molecular target: T3, human IL2 receptor alpha (CD25) (Homo sapiens, UniProt P01589); assay: Surface plasmon resonance binding to IL-2R alpha monomer subunit; conditions: SPR
T3 construct: purchased Abcam Ab221397
T3 sequence (P01589 22-272): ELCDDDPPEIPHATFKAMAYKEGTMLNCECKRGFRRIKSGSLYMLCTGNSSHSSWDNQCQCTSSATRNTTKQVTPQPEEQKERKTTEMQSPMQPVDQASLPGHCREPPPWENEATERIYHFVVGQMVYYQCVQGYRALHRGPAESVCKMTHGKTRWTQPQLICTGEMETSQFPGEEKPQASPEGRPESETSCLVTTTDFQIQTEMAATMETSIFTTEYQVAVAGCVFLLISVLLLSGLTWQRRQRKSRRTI
Description: as §1, §2
NT indicates the IL-2 polypeptide as not tested.

[7] = mice, 0.8 mg/kg, at peak time point

For “Aldesleukin: aldesleukin (SEQ ID NO: 2), comparator IL-2”, the “Ka” value ([1]; primary interaction) was 8.01e+06 M⁻¹ s⁻¹, the “dissociation rate constant (koff, 1/s)” value ([1]; primary interaction) was 0.00175 s⁻¹ and the “Ka” value ([1]; secondary interaction) was 5.13e+06 M⁻¹ s⁻¹. For the same substance, the “Ka” value ([2]; Beta (CD122) monomer) was 319000 M⁻¹ s⁻¹, the “koff (dissociation rate constant)” value ([2]; Beta (CD122) monomer) was 0.289 s⁻¹ and the Kd ([2]; as stated in text (FIG. 3), read-out: Kd, β subunit of the IL-2 receptor) was about 900 nM. The EC50 ([3]; pStat5 MFI, 20 min to 40 min stimulation, read-out: Tregs EC50) was 0.019 nM, the “potency in inducing Treg cells versus Teff cells (in words)” value ([3]; pStat5 dose response curves) was “substantially more potent in inducing Treg cells than Teff cells” and the EC50 (CD8 Teff cells (CD8+); pStat5 MFI, 20 min to 40 min stimulation) was 9.07 nM. For the same substance, the CD8/Tregs (CD8 Teff cells (CD8+); ratio of CD8+ EC50 to Tregs EC50) was 477, the “Timepoint at Peak Tregs” value ([4]; Ki67+ cells, mice, 0.8 mg/kg) was 20 h and the “Timepoint at Peak Tregs” value ([4]; frequency within CD3+, mice, 0.8 mg/kg) was 20 h. The “Tregs % of Ki67+ positive cells” value [4, 7] was 28.3 ± 3.7%, the “Tregs % of Tregs within CD3+” value [4, 7] was 3.52 ± 0.4% and the “Tregs % of pSTAT5 positive cells” value ([4]; mice, 0.01 mg/kg) was 81.0 ± 5.8%. For the same substance, the “Tregs % of pSTAT5 positive cells” value ([4]; mice, 0.03 mg/kg) was 86.9 ± 5.2%, the “Tregs % of pSTAT5 positive cells” value ([4]; mice, 0.1 mg/kg) was 91.1 ± 2.9% and the “Tregs % of pSTAT5 positive cells” value ([4]; mice, 0.3 mg/kg) was 96.2 ± 1.3%. For the same substance, the “Tregs % of pSTAT5 positive cells” value ([4]; mice, 0.8 mg/kg) was 93.3 ± 3.8%, the “Ratio Tregs/CD8+” value ([4]; 0.01 mg/kg) was 3.8 and the “Ratio Tregs/CD8+” value ([4]; 0.03 mg/kg) was 2.8. The “Ratio Tregs/CD8+” value ([4]; 0.1 mg/kg) was 3.1, the “Ratio Tregs/CD8+” value ([4]; 0.3 mg/kg) was 1.5 and the “Ratio Tregs/CD8+” value ([4]; 0.8 mg/kg) was 1.3. For the same substance, the “CD8+ % of CD8+ within CD3+” value (CD8+ Teff (CD3+, CD8+); 0.8 mg/kg, at peak time point) was 32.1 ± 3^ %, the “CD8+ % of Ki67+ positive cells” value (CD8+ Teff (CD3+, CD8+); 0.8 mg/kg, at peak time point) was 19.6 ± 3^ % and the “CD8+ % of pSTAT5 positive cells” value (CD8+ Teff (CD3+, CD8+); 0.01 mg/kg) was 21.3 ± 6.7%. For the same substance, the “CD8+ % of pSTAT5 positive cells” value (CD8+ Teff (CD3+, CD8+); 0.03 mg/kg) was 31.3 ± 6.2%, the “CD8+ % of pSTAT5 positive cells” value (CD8+ Teff (CD3+, CD8+); 0.1 mg/kg) was 29.6 ± 4.4% and the “CD8+ % of pSTAT5 positive cells” value (CD8+ Teff (CD3+, CD8+); 0.3 mg/kg) was 63.2 ± 9.0%. The “CD8+ % of pSTAT5 positive cells” value (CD8+ Teff (CD3+, CD8+); 0.8 mg/kg) was 74.1 ± 11%, the “Timepoint at Peak Teff” value (CD8+ Teff (CD3+, CD8+); Ki67+ cells, 0.8 mg/kg) was 48 h and the “Timepoint at Peak Teff” value (CD8+ Teff (CD3+, CD8+); frequency within CD3+, 0.8 mg/kg) was 36 h. For the same substance, the AUC0-last [5] was 1227 ng·h/mL, the AUCD [5] was 1534 (ng/mL*h)*(mg/kg) and the Cl [5] was 10.85 mL/min/kg. For the same substance, the MRTlast [5] was 36.6 min, the T1/2 [5] was 20.8 min and the “Ka” value ([6]; Alpha (CD25) monomer) was 6.74e+06 M⁻¹ s⁻¹. The “dissociation rate constant (koff)” value ([6]; Alpha (CD25) monomer) was 0.154 s⁻¹ and the Kd ([6]; read-out: observed Kd with IL-2Rα) was 23 nM.
